15 compounds from ChEMBL document CHEMBL1201862, “PubChem BioAssay data set” (2004) can be followed below.

Some test systems named below: SK-OV-3; OVCAR-4; K562; UACC-62; NCI-H522; CCRF-CEM; SW-620; LOX IMVI; NCI-H460; SF-268; SF-295; COLO 205; UO-31; ACHN; A498.
What all share (assay): inhibition of tumour cell growth, NCI panel, 48 h

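48-hour exposure; five concentrations; linearly interpolated endpoints. At the GI50, growth is halved.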 The source made the active and inactive calls. No stated cut-off is given here; in the data, active = GI50 up to about 1.1 µM and inactive = higher.

For `COc1ccc2c(c1)CCc1c-2nc2cc3c(cc2c1O)OCO3`, the GI50 in the experiment on SK-OV-3, in the experiment on OVCAR-4, in the experiment on K562, with UACC-62, with NCI-H522 and in the experiment on CCRF-CEM was > 100 µM (inactive) in each case. Besides, the GI50 with SW-620, in the experiment with LOX IMVI, with NCI-H460, in the experiment with SF-268, in the experiment on SF-295 and with COLO 205 was > 100 µM (inactive) throughout. Further, the GI50 with UO-31 and with ACHN was > 100 µM (inactive) each time.
With `Cc1cccc2c1N(C(=O)/C=C\C(=O)O)C(c1c(C)[nH]c3ccccc13)C2` (stereo unspecified), the GI50 is 30.8 µM (inactive) in the experiment with SK-OV-3; 57.7 µM (inactive) in the experiment on OVCAR-4; 36.6 µM (inactive) in the experiment on K562; 18.9 µM (inactive) in the experiment on UACC-62; 18.5 µM (inactive) in the experiment with NCI-H522; 34.8 µM (inactive) with CCRF-CEM. In addition, the GI50 with SW-620 was 28.4 µM (inactive); with NCI-H460, > 100 µM (inactive); with SF-268, > 10 µM (inactive); in the experiment on SF-295, 44.8 µM (inactive); in the experiment on COLO 205, > 10 µM (inactive); in the experiment with UO-31, > 100 µM (inactive). For the same compound, the GI50 in the experiment with ACHN is 84.3 µM (inactive); with A498, > 100 µM (inactive).
As for `COc1cc(Nc2cnc3ccc(C(F)(F)F)cc3n2)cc(OC)c1OC`, the GI50 in the experiment with CCRF-CEM was 24.7 µM (inactive); in the experiment on SW-620 it was 71.8 µM (inactive); in the experiment with LOX IMVI it was 4.02 µM (inactive); in the experiment on NCI-H460, 12.9 µM (inactive); in the experiment on SF-268 it was 84.5 µM (inactive); in the experiment with SF-295 it was 5.53 µM (inactive). The GI50 was 6.18 µM (inactive) in the experiment on COLO 205, 67.1 µM (inactive) with UO-31 and 9.95 µM (inactive) with ACHN.
In the case of `COC(=O)CSc1nnc(-c2ccc(O)c([N+](=O)[O-])c2)[nH]1`, the GI50 in the experiment with OVCAR-4, with K562, in the experiment with UACC-62, in the experiment on CCRF-CEM, in the experiment with SW-620 and with LOX IMVI was > 100 µM (inactive) in each case. For the same compound, the GI50 with NCI-H460, in the experiment on SF-268, in the experiment with SF-295, with UO-31, in the experiment on ACHN and in the experiment on A498 was > 100 µM (inactive) throughout.
As for `O=[N+]([O-])c1ccc(Cl)cc1C1SCc2nc3ccccc3n21` (stereo unspecified), the GI50 in the experiment with SK-OV-3 was 62.8 µM (inactive); in the experiment on OVCAR-4 it was 44.4 µM (inactive); in the experiment on K562, 33.1 µM (inactive); with UACC-62 it was 61.8 µM (inactive); with NCI-H522, 24.4 µM (inactive); with CCRF-CEM it was 34.8 µM (inactive). Besides, the GI50 with SW-620 was 50.6 µM (inactive); in the experiment on NCI-H460, 5.3 µM (inactive); in the experiment on SF-268, 42.1 µM (inactive); in the experiment with SF-295, 85.7 µM (inactive); with COLO 205, 61.1 µM (inactive); with UO-31, 22.1 µM (inactive). The GI50 was 14.3 µM (inactive) in the experiment with ACHN and 23.6 µM (inactive) with A498.
Consider `CNS(=O)(=O)NNS(=O)(=O)c1ccc(Br)cc1`, for which the GI50 in the experiment with SK-OV-3, with OVCAR-4, with K562, with UACC-62, with NCI-H522 and in the experiment on CCRF-CEM was > 100 µM (inactive) throughout. For the same compound, the GI50 is > 100 µM (inactive) in the experiment on SW-620; > 100 µM (inactive) in the experiment on LOX IMVI; 42.7 µM (inactive) in the experiment on NCI-H460; > 100 µM (inactive) in the experiment with SF-268; > 100 µM (inactive) with COLO 205; 20.6 µM (inactive) with UO-31. In addition, the GI50 in the experiment with ACHN and with A498 was > 100 µM (inactive) each time.
Regarding `O=C(NC12CC3CC(CC(C3)C1)C2)C(=O)c1c[nH]c2ccc(Br)cc12`, the GI50 in the experiment with SK-OV-3 was 25.9 µM (inactive); in the experiment with OVCAR-4 it was 14 µM (inactive); in the experiment with K562, 8.39 µM (inactive); in the experiment on UACC-62, 23.5 µM (inactive); in the experiment with NCI-H522 it was 56 µM (inactive); in the experiment on CCRF-CEM, 3.86 µM (inactive). The GI50 in the experiment with SW-620 was 25 µM (inactive); in the experiment with LOX IMVI, 5.25 µM (inactive); in the experiment on NCI-H460, 10.2 µM (inactive); with SF-268, 9.59 µM (inactive); in the experiment on SF-295, 4.18 µM (inactive); in the experiment on COLO 205, 18.6 µM (inactive). The GI50 is 26.2 µM (inactive) in the experiment with UO-31 and 15.6 µM (inactive) in the experiment on ACHN.
For `CC1CCSC(N(C(=O)N(C)c2ccccc2)c2ccccc2)=N1` (stereo unspecified), the GI50 with SK-OV-3, in the experiment with K562, with UACC-62, with NCI-H522, in the experiment with CCRF-CEM and in the experiment on SW-620 was > 100 µM (inactive) in each case. Besides, the GI50 in the experiment on LOX IMVI, with NCI-H460, in the experiment with SF-268, in the experiment with SF-295, with COLO 205 and in the experiment with UO-31 was > 100 µM (inactive) each time. The GI50 in the experiment on ACHN and with A498 was > 100 µM (inactive) each time.
On to `O=C1CC2CCN(C(=O)c3ccccc3)CC2CCN1` (stereo unspecified), for which the GI50 in the experiment with SK-OV-3, in the experiment with OVCAR-4, with K562, in the experiment with UACC-62, in the experiment on CCRF-CEM and with SW-620 was > 100 µM (inactive) throughout. Moreover, the GI50 with LOX IMVI, in the experiment on NCI-H460, in the experiment on SF-268, in the experiment on SF-295, in the experiment with COLO 205 and in the experiment with UO-31 was > 100 µM (inactive) each time. Further, the GI50 in the experiment with ACHN and in the experiment on A498 was > 100 µM (inactive) in each case.
Regarding `NC(=O)NC1C(C(=O)O)N(Cc2ccccc2)C(=O)N1Cc1ccccc1` (stereo unspecified), the GI50 in the experiment with SK-OV-3, in the experiment on OVCAR-4, in the experiment on K562, in the experiment on UACC-62, with NCI-H522 and in the experiment on CCRF-CEM was > 100 µM (inactive) throughout. Besides, the GI50 in the experiment with SW-620, in the experiment with LOX IMVI, with NCI-H460, in the experiment with SF-268, in the experiment on SF-295 and in the experiment with COLO 205 was > 100 µM (inactive) in each case. The GI50 in the experiment on UO-31 and in the experiment on ACHN was > 100 µM (inactive) in each case.
With `CC1=C(C(=O)Nc2cc(=O)n(C)c(=O)n2C)C(c2ccco2)C(C(=O)Nc2cc(=O)n(C)c(=O)n2C)=C(C)N1`, the GI50 in the experiment on OVCAR-4, with K562, in the experiment with NCI-H522, in the experiment on CCRF-CEM, with SW-620 and in the experiment on LOX IMVI was > 100 µM (inactive) throughout. Further, the GI50 with NCI-H460, with SF-268, with SF-295, in the experiment with COLO 205, with UO-31 and with ACHN was > 100 µM (inactive) in each case. The GI50 with A498 is > 100 µM (inactive).
On to `COc1cc2c(c(OC)c1)C1(CC(CC#N)C2)SCCS1` (stereo unspecified), for which the GI50 is > 100 µM (inactive) in the experiment on SK-OV-3; > 100 µM (inactive) in the experiment on OVCAR-4; > 100 µM (inactive) with K562; > 100 µM (inactive) in the experiment on UACC-62; < 0.01 µM (active) in the experiment with NCI-H522; > 100 µM (inactive) in the experiment with CCRF-CEM. Besides, the GI50 with SW-620, in the experiment with NCI-H460, with SF-268, in the experiment on COLO 205, in the experiment on UO-31 and with ACHN was > 100 µM (inactive) in each case. For the same compound, the GI50 in the experiment on A498 was > 100 µM (inactive).
Turning to `O=C(c1ccccn1)c1nc(-c2ccc(Cl)c(Cl)c2)nc2ccc(Cl)cc12`, the GI50 was 36.4 µM (inactive) in the experiment with SK-OV-3; 40.2 µM (inactive) with OVCAR-4; 92 µM (inactive) in the experiment on K562; 39.2 µM (inactive) in the experiment on UACC-62; 71.1 µM (inactive) with CCRF-CEM; > 100 µM (inactive) with SW-620. For the same compound, the GI50 was 50.4 µM (inactive) in the experiment on NCI-H460; 31.1 µM (inactive) in the experiment with SF-295; 56.9 µM (inactive) with UO-31; 44.3 µM (inactive) in the experiment on ACHN; 45.1 µM (inactive) with A498.
As to `COC(=O)/C=C/C1C2C3(CCC(C)C12C)OCCS3` (stereo unspecified), the GI50 is > 100 µM (inactive) with SK-OV-3; > 100 µM (inactive) in the experiment with OVCAR-4; > 100 µM (inactive) in the experiment with K562; > 100 µM (inactive) in the experiment with NCI-H522; 34.3 µM (inactive) with CCRF-CEM; > 100 µM (inactive) in the experiment on SW-620. Further, the GI50 in the experiment with LOX IMVI, with NCI-H460, in the experiment on SF-268, in the experiment on SF-295, with COLO 205 and in the experiment with UO-31 was > 100 µM (inactive) each time. Besides, the GI50 in the experiment with ACHN and with A498 was > 100 µM (inactive) each time.
Regarding `ONc1ncnc2[nH]cnc12`, the GI50 was > 100 µM (inactive) in the experiment with OVCAR-4; 64.4 µM (inactive) with K562; > 100 µM (inactive) with UACC-62; > 100 µM (inactive) in the experiment on NCI-H522; > 100 µM (inactive) in the experiment on CCRF-CEM; > 100 µM (inactive) with SW-620. For the same compound, the GI50 in the experiment with NCI-H460, in the experiment with SF-268, in the experiment on SF-295, with COLO 205, with UO-31 and in the experiment on ACHN was > 100 µM (inactive) each time.
